Like-named read-outs stand apart in the source and are kept apart here. Blank lines part the entries; values can stand above or below the molecule they belong to. Non-standard residues stand in square brackets, D forms with d. Residues, ends and D or L forms follow the SMILES beside them. No end group written: not given here. *: point of attachment. 5FAM = O=C1OC2(c3ccc(O)cc3Oc3cc(O)ccc32)c2ccc(C(=O)*)cc21; pY = N[C@@H](Cc1ccc(OP(=O)(O)O)cc1)C(=O)O
Experiments:
[1] = molecular target: T1, STAT4 SH2 domain (human STAT4 amino acids 136 to 705) (Homo sapiens, UniProt Q14765); assay: Fluorescence polarization competitive inhibition of binding between 5-CF-GpYLPQNID and STAT4; details: for inhibition: 33 nM STAT4, 10 nM probe; for IC50: SD
T1 sequence (Q14765 136-705): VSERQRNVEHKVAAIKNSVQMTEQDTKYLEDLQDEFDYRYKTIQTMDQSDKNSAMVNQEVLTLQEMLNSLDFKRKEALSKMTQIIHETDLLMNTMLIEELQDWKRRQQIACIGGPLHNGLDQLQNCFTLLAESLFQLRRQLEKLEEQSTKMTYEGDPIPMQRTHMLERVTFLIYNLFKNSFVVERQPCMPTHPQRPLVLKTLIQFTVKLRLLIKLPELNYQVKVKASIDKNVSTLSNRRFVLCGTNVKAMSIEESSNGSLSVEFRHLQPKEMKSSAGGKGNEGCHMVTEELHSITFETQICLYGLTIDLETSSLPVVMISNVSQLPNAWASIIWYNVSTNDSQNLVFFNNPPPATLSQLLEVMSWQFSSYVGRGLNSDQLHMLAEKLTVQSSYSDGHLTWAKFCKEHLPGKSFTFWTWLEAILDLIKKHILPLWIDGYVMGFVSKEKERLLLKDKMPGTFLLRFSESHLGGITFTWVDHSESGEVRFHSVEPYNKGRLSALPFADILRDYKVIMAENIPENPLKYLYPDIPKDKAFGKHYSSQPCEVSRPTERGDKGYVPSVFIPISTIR
Description: (§1) Binding of fluorescent-labelled peptides to the truncated STAT4 protein was analysed using an Infinite F500 plate reader (Tecan) as previously published for STAT5b [12]. Unless otherwise stated, FP assays were performed in a buffer consisting of 10 mM Tris/HCl, 50 mM NaCl, 1 mM EDTA, 0.1% (v/v) NP-40 substitute, 2% (v/v) DMSO and 1 mM DTT at a pH of 8.0. All steps were carried out at room temperature. For the binding assays shown in Figure 1, Figure 2 and Figure 3, the prediluted STAT4 protein was incubated for 1 h before addition of the fluorophore-labelled peptide, to mimic the incubation period with test compounds. For the inhibition assay shown in Figure 4, STAT4 was incubated with unlabelled peptide for 1 h before addition of the fluorophore-labelled peptide (final STAT4 concentration: 33 nM). Fluorescence polarization was read 1 h after addition of the labelled peptide, in non-treated black 384-well microplates (Corning). Fluorescent-labelled peptides were used at a final concentration of 10 nM unless otherwise stated. Binding and inhibition curves were plotted using OriginPro 2019 software (OriginLab). Fluorescence polarization values were normalized by subtracting the FP values of the wells containing the fluorophore-labelled peptides only. […] IC50 values from three independent experiments were used to calculate an average value and the corresponding standard deviation. IC50 values were converted to inhibition constants (Ki) using the published equation [20], with average values calculated as for IC50 values.

[2] = molecular target: T1, STAT4 SH2 domain (human STAT4 amino acids 136 to 705); assay: Fluorescence polarization direct binding assay, labelled phosphopeptides to truncated STAT4; details: for fold lower affinity for STAT4 than 5-CF-GpYLPQNID: ratio of Kd values
Description: as §1

STAT4 = details: cited from earlier work; for IC50: read-out: IC50 against STAT4 in an ELISA
[3] = molecular target: STAT3 (amino acids 127 to 722) (Mus musculus, UniProt P42227); assay: Fluorescence polarization direct binding assay, STAT3; set-up: species or system murine
[4] = molecular target: T2, STAT6 (amino acids 110 to 651) (Homo sapiens, UniProt P42226); assay: Fluorescence polarization direct binding assay, STAT6; details: FP, 10 nM labelled peptide; Figure S1
T2 sequence (P42226 110-651): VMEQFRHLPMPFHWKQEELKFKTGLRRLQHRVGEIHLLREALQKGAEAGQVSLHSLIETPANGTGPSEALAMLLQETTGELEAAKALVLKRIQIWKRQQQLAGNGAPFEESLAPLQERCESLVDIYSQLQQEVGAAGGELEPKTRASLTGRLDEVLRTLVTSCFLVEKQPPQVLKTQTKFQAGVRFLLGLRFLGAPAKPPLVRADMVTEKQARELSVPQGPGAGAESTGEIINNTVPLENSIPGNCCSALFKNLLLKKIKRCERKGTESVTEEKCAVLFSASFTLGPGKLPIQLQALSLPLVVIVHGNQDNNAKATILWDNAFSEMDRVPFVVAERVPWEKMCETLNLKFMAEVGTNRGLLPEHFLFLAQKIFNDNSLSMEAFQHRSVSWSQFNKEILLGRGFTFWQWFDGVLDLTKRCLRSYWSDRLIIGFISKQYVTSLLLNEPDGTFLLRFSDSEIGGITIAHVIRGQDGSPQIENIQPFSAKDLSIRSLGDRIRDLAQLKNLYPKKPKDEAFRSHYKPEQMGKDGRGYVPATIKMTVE

STAT4 R598A = details: FP, Figure 1b, compared with STAT4 wild-type
Description: Binding of fluorescent-labelled peptides to the truncated STAT4 protein was analysed using an Infinite F500 plate reader (Tecan) as previously published for STAT5b [12]. Unless otherwise stated, FP assays were performed in a buffer consisting of 10 mM Tris/HCl, 50 mM NaCl, 1 mM EDTA, 0.1% (v/v) NP-40 substitute, 2% (v/v) DMSO and 1 mM DTT at a pH of 8.0. All steps were carried out at room temperature. For the binding assays shown in Figure 1, Figure 2 and Figure 3, the prediluted STAT4 protein was incubated for 1 h before addition of the fluorophore-labelled peptide, to mimic the incubation period with test compounds. For the inhibition assay shown in Figure 4, STAT4 was incubated with unlabelled peptide for 1 h before addition of the fluorophore-labelled peptide (final STAT4 concentration: 33 nM). Fluorescence polarization was read 1 h after addition of the labelled peptide, in non-treated black 384-well microplates (Corning). Fluorescent-labelled peptides were used at a final concentration of 10 nM unless otherwise stated. […] Fluorescence polarization values were normalized by subtracting the FP values of the wells containing the fluorophore-labelled peptides only. […] IC50 values were converted to inhibition constants (Ki) using the published equation [20], with average values calculated as for IC50 values.

EPO receptor peptide = EPO receptor peptide (Homo sapiens, UniProt P19235, phosphotyrosine, 5-carboxyfluorescein); assay: fluorescence polarization
gp130 peptide = gp130 peptide (Homo sapiens, UniProt P40189, phosphotyrosine, 5-carboxyfluorescein); assay: fluorescence polarization
IFN-γ receptor peptide = molecular target: T3, IFN-γ receptor peptide (Homo sapiens, UniProt P15260, also: 5-carboxyfluorescein, site not given here); assay: fluorescence polarization
T3 chain: G[pY]DKPHVL

Sequence of STAT3 (amino acids 127 to 722) (P42227 127-722): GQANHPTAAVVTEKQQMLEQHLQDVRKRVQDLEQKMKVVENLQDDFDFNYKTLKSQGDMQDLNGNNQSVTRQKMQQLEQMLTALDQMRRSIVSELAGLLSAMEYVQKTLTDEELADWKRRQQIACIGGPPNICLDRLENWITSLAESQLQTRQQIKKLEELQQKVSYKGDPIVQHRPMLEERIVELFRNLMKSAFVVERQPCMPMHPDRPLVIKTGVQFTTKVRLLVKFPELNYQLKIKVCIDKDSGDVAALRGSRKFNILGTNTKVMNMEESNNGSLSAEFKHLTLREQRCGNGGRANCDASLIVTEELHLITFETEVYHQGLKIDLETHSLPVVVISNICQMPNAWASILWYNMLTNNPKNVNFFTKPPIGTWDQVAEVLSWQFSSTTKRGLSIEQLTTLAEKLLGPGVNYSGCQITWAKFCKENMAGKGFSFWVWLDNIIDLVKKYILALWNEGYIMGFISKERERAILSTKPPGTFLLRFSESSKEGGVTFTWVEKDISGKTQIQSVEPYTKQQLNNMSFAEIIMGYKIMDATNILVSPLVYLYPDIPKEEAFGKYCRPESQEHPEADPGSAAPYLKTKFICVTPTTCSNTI

Molecule: CC(=O)N[C@@H](Cc1ccc(OP(=O)(O)O)cc1)C(=O)N[C@@H](CC(C)C)C(=O)N1CCC[C@H]1C(=O)N[C@@H](CCC(N)=O)C(=O)N[C@H](C(=O)N[C@H](C(N)=O)C(C)C)[C@@H](C)O [Ac-pYLPQTV-NH2]
IC50 [1]: 1270 ± 100 nM | fold less active than Ac-GpYLPQNID ([1]; ratio of IC50 values): 2.6 fold

Molecule: 5-CF-GPMQSpTPLNG
binding to STAT4 (in words) ([2]; FP, 10 nM labelled peptide): did not bind

Molecule: SHEGpYLPWNID
fold less potent against STAT4 than SHEGpYLPQNID in an ELISA (STAT4): 2-3 fold | IC50 (STAT4): 930 nM

Molecule: CC[C@H](C)[C@H](NC(=O)[C@H](CC(N)=O)NC(=O)[C@H](CCC(N)=O)NC(=O)[C@@H]1CCCN1C(=O)[C@H](CC(C)C)NC(=O)[C@H](Cc1ccc(OP(=O)(O)O)cc1)NC(=O)CNC(=O)c1ccc2c(c1)C(=O)OC21c2ccc(O)cc2Oc2cc(O)ccc21)C(=O)N[C@@H](CC(=O)O)C(=O)O [5-CF-GpYLPQNID] (5FAM-G[pY]LPQNID-OH)
Kd ([3]; FP, 10 nM labelled peptide, Figure S1, mean ± SD of 3 independent experiments, SD): 131 ± 6 nM | weaker affinity for STAT3 than for STAT4 ([3]; ratio of Kd values STAT3 vs STAT4): fourfold | Kd [4]: > 2560 nM | binding to STAT4 R598A (in words) (STAT4 R598A): almost completely abolished | reduction in affinity for STAT4 by 8 h ([2]; 8 h after addition of labelled probe): no more than 35% | Kd ([2]; SD): 34 ± 4 nM

Molecule: CC(C)C[C@H](NC(=O)[C@H](Cc1c[nH]c2ccccc12)NC(=O)[C@H](CCCCN)NC(=O)[C@H](CC(=O)O)NC(=O)[C@H](CC(C)C)NC(=O)[C@@H](NC(=O)[C@H](CC(C)C)NC(=O)[C@H](Cc1ccc(OP(=O)(O)O)cc1)NC(=O)[C@@H](NC(=O)[C@@H](N)CC(=O)O)[C@@H](C)O)C(C)C)C(=O)O [DTpYLVLDKWL] (H-DT[pY]LVLDKWL-OH)
IC50 [1]: 4170 ± 130 nM

Molecule: CC(C)C[C@H](NC(=O)[C@@H](NC(=O)[C@H](Cc1c[nH]cn1)NC(=O)[C@@H]1CCCN1C(=O)[C@H](CCCCN)NC(=O)[C@H](CC(=O)O)NC(=O)[C@H](Cc1ccc(OP(=O)(O)O)cc1)NC(=O)CN)C(C)C)C(=O)O [GpYDKPHVL] (H-G[pY]DKPHVL-OH)
IC50 [1]: 31400 ± 6700 nM

Molecule: CC(C)C[C@H](NC(=O)[C@H](Cc1ccc(OP(=O)(O)O)cc1)NC(=O)CNC(=O)c1ccc2c(c1)C(=O)OC21c2ccc(O)cc2Oc2cc(O)ccc21)C(=O)N[C@H](C(=O)N[C@@H](CC(C)C)C(=O)N[C@@H](CC(=O)O)C(=O)N[C@@H](CCCCN)C(=O)N[C@@H](Cc1c[nH]c2ccccc12)C(=O)O)C(C)C [5-CF-GpYLVLDKW]
Kd ([2]; SD): 267 ± 6 nM | fold lower affinity for STAT4 than 5-CF-GpYLPQNID ([2]; 10 nM labelled peptide): approximately 8 fold

Molecule: SHEGpYLPQNID
IC50 (STAT4): 390 nM

Molecule: CC(C)C[C@H](NC(=O)[C@@H](NC(=O)[C@H](Cc1c[nH]cn1)NC(=O)[C@@H]1CCCN1C(=O)[C@H](CCCCN)NC(=O)[C@H](CC(=O)O)NC(=O)[C@H](Cc1ccc(OP(=O)(O)O)cc1)NC(=O)CNC(=O)c1ccc2c(c1)C(=O)OC21c2ccc(O)cc2Oc2cc(O)ccc21)C(C)C)C(=O)O [5-CF-GpYDKPHVL] (5FAM-G[pY]DKPHVL-OH)
Kd ([2]; SD): 1230 ± 284 nM

Molecule: CC[C@H](C)[C@H](NC(=O)[C@H](CCC(=O)O)NC(=O)[C@H](CCC(=O)O)NC(=O)[C@H](Cc1ccc(OP(=O)(O)O)cc1)NC(=O)CNC(=O)c1ccc2c(c1)C(=O)OC21c2ccc(O)cc2Oc2cc(O)ccc21)C(=O)N1CCC[C@H]1C(=O)O [5-CF-GpYEEIP] (5FAM-G[pY]EEIP-OH)
Kd [2]: > 2560 nM

Further lines, results first:

inhibition ([1]; read-out: Inhibition at 40 µM, 40 µM unlabelled peptide, n = 2): 2 ± 2% | inhibitory effect on STAT4 (in words) ([1]; up to 40 µM): no detectable inhibitory effect
Molecule: MAGPMQSpTPLNGAKK

inhibition ([1]; read-out: Inhibition at 40 µM, 40 µM unlabelled peptide (highest concentration tested)): 37 ± 4%
Molecule: GpYEEIP

Kd ([2]; SD): 82 ± 2 nM | fold lower affinity for STAT4 than 5-CF-GpYLPQNID ([2]; 10 nM labelled peptide): 2.4 fold
Molecule: CC(C)C[C@H](NC(=O)[C@H](Cc1ccc(OP(=O)(O)O)cc1)NC(=O)CNC(=O)c1ccc2c(c1)C(=O)OC21c2ccc(O)cc2Oc2cc(O)ccc21)C(=O)N1CCC[C@H]1C(=O)N[C@@H](CCC(N)=O)C(=O)N[C@H](C(=O)N[C@H](C(N)=O)C(C)C)[C@@H](C)O [5-CF-GpYLPQTV-NH2] (5FAM-G[pY]LPQTV-NH2)

IC50 [1]: 490 ± 40 nM | extrapolated maximum inhibition at infinite peptide concentrations ([1]; extrapolated from inhibition curve): 98.4 ± 0.9% | inhibition at 40 µM ([1]; read-out: Inhibition at 40 µM): 96%
Molecule: CC[C@H](C)[C@H](NC(=O)[C@H](CC(N)=O)NC(=O)[C@H](CCC(N)=O)NC(=O)[C@@H]1CCCN1C(=O)[C@H](CC(C)C)NC(=O)[C@H](Cc1ccc(OP(=O)(O)O)cc1)NC(=O)CNC(C)=O)C(=O)N[C@@H](CC(=O)O)C(=O)O [Ac-GpYLPQNID] (Ac-G[pY]LPQNID-OH)

Kd ([2]; SD): 160 ± 6 nM
Molecule: CC[C@H](C)[C@H](NC(=O)[C@H](CC(N)=O)NC(=O)[C@H](CO)NC(=O)[C@@H]1CCCN1C(=O)[C@H](CC(C)C)NC(=O)[C@H](Cc1ccc(OP(=O)(O)O)cc1)NC(=O)CNC(=O)c1ccc2c(c1)C(=O)OC21c2ccc(O)cc2Oc2cc(O)ccc21)C(=O)N[C@@H](CC(=O)O)C(=O)O [5-CF-GpYLPSNID] (5FAM-G[pY]LPSNID-OH)

Kd ([2]; SD): 93 ± 8 nM | fold lower affinity for STAT4 than 5-CF-GpYLPQNID ([2]; 10 nM labelled peptide): 3 fold
Molecule: CC[C@H](C)[C@H](NC(=O)[C@H](CC(C)C)NC(=O)[C@H](CC(=O)O)NC(=O)[C@H](CCC(N)=O)NC(=O)[C@H](Cc1c[nH]c2ccccc12)NC(=O)[C@@H]1CCCN1C(=O)[C@@H](NC(=O)[C@H](Cc1ccc(OP(=O)(O)O)cc1)NC(=O)CNC(=O)c1ccc2c(c1)C(=O)OC21c2ccc(O)cc2Oc2cc(O)ccc21)C(C)C)C(=O)O [5-CF-GpYVPWQDLI] (5FAM-G[pY]VPWQDLI-OH)

Kd (EPO receptor peptide): 267 nM | Kd (gp130 peptide): 82 nM | Kd (IFN-γ receptor peptide): 1230 nM
B1: STAT4 SH2 (protein)
chain: LPLWIDGYVMGFVSKEKERLLLKDKMPGTFLLRFSESHLGGITFTWVDHSESGEVRFHSVEPYNKGRLSALPFADILRDYKVIMAENIPENPLKYLYPDIPK

Source: PMC9781101, “A High-Throughput Fluorescence Polarization-Based Assay for the SH2 Domain of STAT4” (Methods and Protocols, 2022)
